{"source": "patent US10500178B2", "about": "“LTB4 inhibition to prevent and treat human lymphedema” (The Board of Trustees of the Leland Stanford Junior …, priority 2015, dated 2019)", "key": {"[1]": {"tested_on": "acquired lymphedema surgically induced in the tails of female C57BL/6J mice", "assay": "mouse-tail model of acquired lymphedema (tail volume, histology)", "format": "in vivo", "method": "Surgical induction of experimental lymphatic vascular insufficiency. […] Briefly, a full-thickness circumferential incision of the skin was made 16 mm distal to the base of the mouse tail under anesthesia. Lymphatic trunks were ablated through controlled, limited cautery application under the surgical microscope. For surgical controls (sham animals), the skin incision alone was performed without lymphatic cautery.\n(§1) All small molecule drugs were administered through daily intraperitoneal injection.\nTail volume quantitation. Tail-volume measurements at each designated time were quantified by observers blinded to the treatment status of the subjects. Tail volumes were calculated through a digital photographic technique pre-operatively, and post-operatively (d3, d9, d14, d20, and d24), using an Olympus D520 Zoom digital camera at SHQ resolution at a fixed distance from the subject (37 cm), as previously described. Tail volumes were derived from the measurement of the tail diameter using the truncated cone approximation. Microlymphangiography was performed by injecting FITC-dextran (size: 2000 kDa) subcutaneously into mouse tails on post-surgery d24. Images were taken 20 minutes after injection.\nViral particles were mixed with Lipofectamine 2,000 (5% final vol/vol, Invitrogen) before injection, to increase transduction efficiency. qRT-PCR, immunofluorescence and fluorescence in situ hybridization were used to evaluate the silencing efficiency in the mouse tail skin 24d after surgery."}, "LTB4": {"tested_on": "LTB4", "assay": "serum LTB4 levels in lymphedema mice", "format": "in vivo, mouse", "settings": "therapies initiated on d3, assessed on d24", "method": "as §1\nQuantification of LTB4, PGE2 and S1P with LC-MS/MS. Briefly, LTB4, PGE2 and S1P were separated from serum with an ACE reverse phase C18 HPLC column. Formic acid 0.5% in 5 mM NH4Ac (A) and formic acid 0.5% in acetonitrile/water (9/1) (B) were used as the mobile phase. […] The internal standard of this method was Carbutamide. The quantification limit was 1 ng/ml. The calibration range was 1-2000 ng/ml."}, "Notch signaling": {"tested_on": "Notch signaling", "assay": "Notch signaling in mouse lymphedema (NICD, Hey1, EphrinB2)", "format": "in vivo", "settings": "WT mice", "method": "as §1\nWestern Blot HLECs were lysed with RIPA buffer containing protease and phosphatase inhibitors. Lysates were sonicated briefly and centrifuged. The supernatant was collected and protein concentration was determined by BCA assay. 60 µg of protein were resolved on a 10% SDS-PAGE gel, transferred to a nitrocellulose membrane, blocked with 5% milk and probed with one of the following antibodies: anti-Sphk1 (3297,Cell Signaling); antip-Sphk1(SP1641, ECM Biosciences); anti-NICD (ab8925,Abcam), anti-VEGFR3 (AF743,R&D); anti-DLL4 (ab7280, Abcam). Actin was used to normalize the total protein. […] Images were acquired by Zeiss 710 confocal microscopy and analyzed using ImageJ software.\nQuantitative RT-PCR. Quantitative PCR (qRT-PCR) was performed using FastStart SYBR Green (Roche) on a Lightcycler 480. mRNA expression relative to GAPDH mRNA levels were calculated using the delta-delta threshold cycle (ΔΔCT) method. […]"}, "LEC Notch1−/− mice": {"tested_on": "LEC Notch1−/− mice", "assay": "lymphedema surgery in LEC Notch1-/- mice", "format": "in vivo, mouse", "source_text": "(§2) To generate lymphatic endothelial specific tdTomato reporter mice (Prox1-Cre-ER-tdTomato), Prox1-Cre-ER mice were crossed with tdTomato mice. To create lymphatic endothelial cell specific Notch1 or S1pr1 conditional knockouts, Prox1-Cre-ER mice were crossed with Notch1loxp/loxp or S1pr1loxp/loxp mice. Mice with Prox1-Cre-ER and both target alleles floxed by Prox1-Cre-ER/Notch1^loxp/loxp or Prox1-Cre-ER/S1pr1^loxp/loxp were considered to be either lymphatic endothelial cell-specific Notch1 knockout (LEC Notch1−/−) or S1pr1 knockout (LEC S1pr1^−/−), respectively. Mice expressing Prox1-Cre-ER were used as WT controls. […] Cre-mediated gene knockout efficiency was evaluated by enumerating Notch1- or S1PR1-expressing lymphatic endothelial cells or by qRT-PCR measurements of Notch1 or S1pr1 transcripts in the lymphatic endothelial cells, sorted by flow cytometry. […]\n(§3) Tail volume quantitation. Tail-volume measurements at each designated time were quantified by observers blinded to the treatment status of the subjects. Tail volumes were calculated through a digital photographic technique pre-operatively, and post-operatively (d3, d9, d14, d20, and d24), using an Olympus D520 Zoom digital camera at SHQ resolution at a fixed distance from the subject (37 cm), as previously described. […]"}, "LEC S1pr1−/− mice": {"tested_on": "LEC S1pr1−/− mice", "assay": "lymphedema surgery in LEC S1pr1-/- mice", "format": "in vivo, mouse", "source_text": "as §2, §3"}}}
{"smiles": "CC(C)C[C@H](NC(=O)[C@@H](O)[C@H](N)Cc1ccccc1)C(=O)O", "note": "[bestatin, (2S)-2-[[(2S,3R)-3-amino-2-hydroxy-4-phenylbutanoyl]amino]-4-methylpentanoic acid]", "values": [{"measurement": "benefit of LTB4 antagonism administered prior to surgery", "setting": "[1]; therapies administered prior to sham and lymphedema surgery (bestatin, Ly293111 from d0, shLtb4r1 on d(−7))", "value": "not beneficial"}, {"measurement": "amelioration of lymphedema (serial tail-volume measurements over 24d)", "setting": "[1]; therapies started on post-surgery d3 (late LTB4 antagonism)", "value": "demonstrated therapeutic amelioration of lymphedema"}, {"measurement": "reversal of more established disease by delayed dosing", "setting": "[1]; therapy initiated 9d or 14d post-surgically", "value": "effective"}, {"measurement": "serum LTB4 levels", "setting": "LTB4", "value": "effectively reduced"}, {"measurement": "Hey1 and EphrinB2 expression in diseased lymphatics", "setting": "Notch signaling", "value": "normalized"}, {"measurement": "NICD nuclear accumulation in mouse lymphedema", "setting": "Notch signaling", "value": "restored"}, {"measurement": "response of lymphedema to therapy", "setting": "LEC Notch1−/− mice", "value": "refractory"}, {"measurement": "mural smooth muscle coverage around collecting lymphatics", "setting": "LEC Notch1−/− mice; as against WTs", "value": "not restituted"}, {"measurement": "lymphatic Sphk1 and eNOS expression after treatment", "setting": "LEC S1pr1−/− mice", "value": "remaining low"}, {"measurement": "reversal of lymphedema (tail volume, dermal thickness, lymphatic dilation)", "setting": "LEC S1pr1−/− mice", "value": "failed to reverse lymphedema"}]}
